The record followed here is patent US9023789B2, “Amylin analogs and pharmaceutical compositions thereof” (Novo Nordisk A/S, priority 2012, dated 2015).

Series [1] has as its target T1, human amylin 3(a) receptor (human calcitonin receptor + RAMP-3) in BHK570 cells (Homo sapiens, UniProt O60896+P30988).
T1 construct: expressed in transfected cells
Description: ASSAY (II)a functional assay, human amylin receptor (CRE luciferase). Format: cell-based. The settings on record: for EC50: human amylin receptor functional potency, assay (II), read-out: hAmylin-R funct. EC50. In a few lines: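 Ligand exposure 3 h at 37 °C, 5% CO2 in DMEM with 10% FBS, 10 mM Hepes pH 7.4. cAMP-driven luciferase read by luminescence after 30 min LucLite at room temperature.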

The nature of series [2]: ASSAY (III) ThT fibrillation assay for physical stability. Format: physicochemical. In a few lines: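 Formulations with 1 μM ThT, pH adjusted as required, incubated at 37 °C with 960 rpm orbital shaking; fluorescence (ex 444/em 485 nm) read every 20 min. Fibrillation reported as mean ThT fluorescence ± SD of 4–8 replicates at time points; polypeptide concentration measured by reverse-phase HPLC before and after, post-centrifugation.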

The target in series [3] is T2, human amylin receptor (membranes from Amylin 3(a)/CRE-luc cells) (Homo sapiens, UniProt O60896+P30988).
T2 construct: expressed in transfected cells
T2 sequence (P30988 25-474): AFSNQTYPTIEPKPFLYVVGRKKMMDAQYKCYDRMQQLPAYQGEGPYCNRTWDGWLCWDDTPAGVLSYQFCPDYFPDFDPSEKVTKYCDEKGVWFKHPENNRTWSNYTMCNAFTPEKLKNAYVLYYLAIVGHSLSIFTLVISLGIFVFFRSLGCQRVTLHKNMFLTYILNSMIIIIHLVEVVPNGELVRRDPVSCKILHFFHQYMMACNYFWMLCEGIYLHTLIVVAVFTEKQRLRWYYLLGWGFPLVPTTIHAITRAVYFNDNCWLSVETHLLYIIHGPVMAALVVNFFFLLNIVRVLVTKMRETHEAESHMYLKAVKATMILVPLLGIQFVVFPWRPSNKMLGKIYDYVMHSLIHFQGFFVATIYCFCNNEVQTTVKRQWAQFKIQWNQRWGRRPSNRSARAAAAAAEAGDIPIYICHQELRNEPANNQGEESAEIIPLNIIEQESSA
T2 sequence (O60896 24-148 partner): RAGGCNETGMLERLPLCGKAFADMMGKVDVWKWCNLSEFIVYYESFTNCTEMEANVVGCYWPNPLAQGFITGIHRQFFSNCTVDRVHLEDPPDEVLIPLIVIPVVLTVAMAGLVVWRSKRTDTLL
Description: ASSAY (V) binding to the human amylin receptor (SPA, 125I-rat amylin).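 For all read-outs here: competition binding of cell membranes (35 ng/µL) mixed with SPA beads in 384-well plates at 40 µL total volume, read by scintillation counting.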 The following applies: for IC50: Table 4, read-out: hAmylin-R bind IC50.

Setting [4] is: hCTR funct. EC50 divided by hAmylin-R funct. EC50.
Where [5] appears, read: hCTR funct. EC50 over hAmylin-R funct. EC50.
The mark [6] stands for this setting: human functional selectivity: hCTR funct. EC50 / hAmylin-R funct. EC50.
The mark [7] stands for this setting: Table 5, selectivity, hCTR bind IC50 / hAmylin-R bind IC50.
[8] abbreviates: Table 5a, selectivity, hCTR bind IC50 / hAmylin-R bind IC50.
Where [9] appears, read: Table 5b, selectivity, hCTR bind IC50 / hAmylin-R bind IC50.
The mark [10] stands for this setting: Table 5c, selectivity, hCTR bind IC50 / hAmylin-R bind IC50.
Where [11] appears, read: Table 7, human binding selectivity, included for comparison.
Setting [12] is: Table 7a (preferred compounds), human binding selectivity, included for comparison.
Where [13] appears, read: ratio of human calcitonin receptor binding IC50 to human amylin receptor binding IC50.

Numbered stars: 1 amine (or outer) side, 2 acyl side, 3 side chain; on linkers, the order of the positions; unused ones are H or OH. Bridge positions count the residues as written; N and C are the ends. Side chains are listed from the residue outwards. Peptide text beside a SMILES is read from it. * marks the point of attachment. C20 diacid = O=C(O)CCCCCCCCCCCCCCCCCCC(=O)*; γGlu = O=C(O)[C@H](CCC(=O)[*:2])N[*:1]

On to `CC[C@H](C)[C@H](NC(=O)[C@H](C)NC(=O)CNC(=O)[C@H](Cc1ccccc1)NC(=O)[C@H](CC(N)=O)NC(=O)[C@@H]1CCCN1C(=O)[C@H](CO)NC(=O)[C@H](CO)NC(=O)[C@H](Cc1c[nH]cn1)NC(=O)[C@H](CCCNC(=N)N)NC(=O)[C@H](CC(C)C)NC(=O)[C@H](Cc1ccccc1)NC(=O)[C@H](CC(N)=O)NC(=O)[C@H](C)NC(=O)[C@H](CC(C)C)NC(=O)[C@H](CCCNC(=N)N)NC(=O)[C@H](CCC(N)=O)NC(=O)[C@@H](NC(=O)[C@H](C)NC(=O)[C@@H]1CSSC[C@H](NC(=O)[C@@H](N)CCCCNC(=O)COCCOCCNC(=O)CC[C@H](NC(=O)CCCCCCCCCCCCCCCCCCC(=O)O)C(=O)O)C(=O)N[C@@H](CC(N)=O)C(=O)N[C@@H]([C@@H](C)O)C(=O)N[C@@H](C)C(=O)N[C@@H]([C@@H](C)O)C(=O)N1)[C@@H](C)O)C(=O)N1CCC[C@H]1C(=O)N[C@@H](CO)C(=O)N[C@@H](CO)C(=O)N[C@H](C(=O)N[C@@H](CC(N)=O)C(=O)N[C@H](C(=O)NCC(=O)N[C@@H](CO)C(=O)N[C@@H](CC(N)=O)C(=O)N[C@H](C(=O)N[C@@H](Cc1ccc(O)cc1)C(N)=O)[C@@H](C)O)C(C)C)[C@@H](C)O` [Example 41], for which the “Ratio hCT/hAmylin funct.” value in series [1] (setting [4]), in series [1] (setting [5]) and in series [1] (setting [6]) was 16.7 throughout. Moreover, the EC50 in series [1] was determined as 0.26 nM. The “ThT pH 4.0 lag time (h)” value in series [2] was found to be 7 h. For the same molecule, in series [3], the IC50 was 0.427 nM. Moreover, the “Ratio hCT/hAmylin binding” value in series [3] (setting [7]), in series [3] (setting [8]), in series [3] (setting [9]), in series [3] (setting [10]), in series [3] (setting [11]) and in series [3] (setting [12]) was 49.9 throughout. Further, the “Ratio hCT/hAmylin binding” value in series [3] (setting [13]) was 49.9.
On to `CC[C@H](C)[C@H](NC(=O)[C@H](C)NC(=O)CNC(=O)[C@H](Cc1ccccc1)NC(=O)[C@H](CC(N)=O)NC(=O)[C@@H]1CCCN1C(=O)[C@H](CO)NC(=O)[C@H](CO)NC(=O)[C@H](Cc1c[nH]cn1)NC(=O)[C@H](CCCNC(=N)N)NC(=O)[C@H](CC(C)C)NC(=O)[C@H](Cc1ccccc1)NC(=O)[C@H](CC(N)=O)NC(=O)[C@H](C)NC(=O)[C@H](CC(C)C)NC(=O)[C@H](CCCNC(=N)N)NC(=O)[C@H](CCC(N)=O)NC(=O)[C@@H](NC(=O)[C@H](C)NC(=O)[C@@H]1CSSC[C@H](NC(=O)[C@@H](N)CCCCNC(=O)COCCOCCNC(=O)CCCCCCCCCCCCCCCCCCC(=O)O)C(=O)N[C@@H](CC(N)=O)C(=O)N[C@@H]([C@@H](C)O)C(=O)N[C@@H](C)C(=O)N[C@@H]([C@@H](C)O)C(=O)N1)[C@@H](C)O)C(=O)N1CCC[C@H]1C(=O)N[C@@H](CO)C(=O)N[C@@H](CO)C(=O)N[C@H](C(=O)N[C@@H](CC(N)=O)C(=O)N[C@H](C(=O)NCC(=O)N[C@@H](CO)C(=O)N[C@@H](CC(N)=O)C(=O)N[C@H](C(=O)N[C@@H](Cc1ccc(O)cc1)C(N)=O)[C@@H](C)O)C(C)C)[C@@H](C)O` [Example 43], for which the “Ratio hCT/hAmylin funct.” value in series [1] (setting [4]) and in series [1] (setting [6]) was 6.5 throughout. In addition, in series [1], the EC50 amounted to 0.141 nM. Moreover, in series [2], the “ThT pH 4.0 lag time (h)” value is 4 h. The IC50 in series [3] stood at 0.076 nM. The “Ratio hCT/hAmylin binding” value in series [3] (setting [7]), in series [3] (setting [8]), in series [3] (setting [9]), in series [3] (setting [10]), in series [3] (setting [11]) and in series [3] (setting [12]) was 34.7 in each case. Besides, the “Ratio hCT/hAmylin binding” value in series [3] (setting [13]) was found to be 34.7.
As to `CC[C@H](C)[C@H](NC(=O)[C@H](C)NC(=O)CNC(=O)[C@H](Cc1ccccc1)NC(=O)[C@H](CC(N)=O)NC(=O)[C@@H]1CCCN1C(=O)[C@H](CO)NC(=O)[C@H](CO)NC(=O)[C@H](Cc1c[nH]cn1)NC(=O)[C@H](CCCNC(=N)N)NC(=O)[C@H](CC(C)C)NC(=O)[C@H](Cc1ccccc1)NC(=O)[C@H](CC(N)=O)NC(=O)[C@H](C)NC(=O)[C@H](CC(C)C)NC(=O)[C@H](CCCNC(=N)N)NC(=O)[C@H](CCC(N)=O)NC(=O)[C@@H](NC(=O)[C@H](C)NC(=O)[C@@H]1CSSC[C@H](NC(=O)[C@H](CCCNC(=N)N)NC(=O)[C@@H](N)CCCCNC(=O)CC[C@H](NC(=O)CCCCCCCCCCCCCCCCCCC(=O)O)C(=O)O)C(=O)N[C@@H](CC(N)=O)C(=O)N[C@@H]([C@@H](C)O)C(=O)N[C@@H](C)C(=O)N[C@@H]([C@@H](C)O)C(=O)N1)[C@@H](C)O)C(=O)N1CCC[C@H]1C(=O)N[C@@H](CO)C(=O)N[C@@H](CO)C(=O)N[C@H](C(=O)N[C@@H](CC(N)=O)C(=O)N[C@H](C(=O)NCC(=O)N[C@@H](CO)C(=O)N[C@@H](Cc1c[nH]cn1)C(=O)N[C@H](C(=O)N[C@@H](Cc1ccc(O)cc1)C(N)=O)[C@@H](C)O)C(C)C)[C@@H](C)O` [Example 44] (H-K([γGlu-C20 diacid])RCNTATCATQRLANFLRHSSPNFGAIPSSTNVGSHTY-NH2; disulfide 3-8), the “Ratio hCT/hAmylin funct.” value in series [1] (setting [4]), in series [1] (setting [5]) and in series [1] (setting [6]) was 24.0 in each case. The EC50 in series [1] was 0.198 nM. The “ThT pH 4.0 lag time (h)” value in series [2] is reported as 45 h. Also, in series [3], the IC50 turned out to be 0.275 nM. The “Ratio hCT/hAmylin binding” value in series [3] (setting [7]), in series [3] (setting [8]), in series [3] (setting [9]), in series [3] (setting [11]), in series [3] (setting [12]) and in series [3] (setting [13]) was 17.7 in each case.
With `CC[C@H](C)[C@H](NC(=O)[C@H](C)NC(=O)CNC(=O)[C@H](Cc1ccccc1)NC(=O)[C@H](CC(N)=O)NC(=O)[C@@H]1CCCN1C(=O)[C@H](CO)NC(=O)[C@H](CO)NC(=O)[C@H](Cc1c[nH]cn1)NC(=O)[C@H](CCCNC(=N)N)NC(=O)[C@H](CC(C)C)NC(=O)[C@H](Cc1ccccc1)NC(=O)[C@H](CC(N)=O)NC(=O)[C@H](C)NC(=O)[C@H](CC(C)C)NC(=O)[C@H](CCCNC(=N)N)NC(=O)[C@H](CCC(N)=O)NC(=O)[C@@H](NC(=O)[C@H](C)NC(=O)[C@@H]1CSSC[C@H](NC(=O)[C@H](CCCNC(=N)N)NC(=O)CNC(=O)CC[C@H](NC(=O)CCCCCCCCCCCCCCCCCCC(=O)O)C(=O)O)C(=O)N[C@@H](CC(N)=O)C(=O)N[C@@H]([C@@H](C)O)C(=O)N[C@@H](C)C(=O)N[C@@H]([C@@H](C)O)C(=O)N1)[C@@H](C)O)C(=O)N1CCC[C@H]1C(=O)N[C@@H](CO)C(=O)N[C@@H](CO)C(=O)N[C@H](C(=O)N[C@@H](CC(N)=O)C(=O)N[C@H](C(=O)NCC(=O)N[C@@H](CO)C(=O)N[C@@H](CC(N)=O)C(=O)N[C@H](C(=O)N[C@@H](Cc1ccc(O)cc1)C(N)=O)[C@@H](C)O)C(C)C)[C@@H](C)O` [Example 46] ({C20 diacid-γGlu}-GRCNTATCATQRLANFLRHSSPNFGAIPSSTNVGSNTY-NH2; disulfide 3-8 (inferred)), the “Ratio hCT/hAmylin funct.” value in series [1] (setting [4]), in series [1] (setting [5]) and in series [1] (setting [6]) was 10.2 each time. Besides, the “ThT pH 4.0 lag time (h)” value in series [2] came to 24 h. Also, the “Ratio hCT/hAmylin binding” value in series [3] (setting [7]), in series [3] (setting [8]), in series [3] (setting [9]), in series [3] (setting [10]), in series [3] (setting [11]) and in series [3] (setting [12]) was 48.9 each time. Besides, the “Ratio hCT/hAmylin binding” value in series [3] (setting [13]) is 48.9.
